Data as given in ChEMBL document CHEMBL1157539, “Thousands of chemical starting points for antimalarial lead identification” (Nature, 2010).

Test system: Plasmodium falciparum
Experiment: GSK_TCMDC: Inhibition of Plasmodium falciparum 3D7 in whole erythrocytes, using parasite LDH activity as an index of growth.
Format: functional, organism-based
Conditions: Plasmodium falciparum, 3D7

SMILES	XC50 [nM]
O=C(/C=C/c1cc([N+](=O)[O-])ccc1Cl)NC1CCC(CN2CCC(c3c[nH]c4ccccc34)CC2)CC1 (stereo unspecified)	740
CCN(CC)CCc1ccc2c(=O)cc(CCc3cccc(F)c3F)n(CC(=O)N(C)Cc3ccc(-c4ccc(C(F)(F)F)cc4)cc3)c2c1	862
CCN(CC)CCN(Cc1ccc(-c2ccc(C(F)(F)F)cc2)cc1)C(=O)Cn1c(CCc2ccc(F)c(F)c2)nc(=O)c2ccccc21	1580
CC(C)(CN1CCCC1)CN(Cc1ccc(-c2ccc(C(F)(F)F)cc2)cc1)C(=O)Cn1c(CCc2cccc(F)c2F)nc(=O)c2ccccc21	790
CCNc1cc(C(=O)N[C@@H](Cc2ccccc2)[C@H](O)CN[C@@H]2CCc3ccccc32)cc(N2CCCC2=O)c1	1020
Cc1nc(O)c2c(ccc3ccc(CNc4ccc(C(=O)N[C@@H](CCC(=O)O)C(=O)O)c(F)c4)cc32)n1	402
O=C(/C=C/c1ccc(Cl)c(Cl)c1)NCCCCCCN1CCCN(C(=O)Nc2ccc(Cl)c(Cl)c2)CC1	666
Cc1ccc(Nc2ccnc(Nc3ccc4c(c3)CS(=O)(=O)C4)n2)cc1O	725
O=C(Nc1cccnc1)c1ccc(-c2cc3ccncc3cc2OC2CCNCC2)s1	884
O=C1CCCN1CCCNCc1cccc(-c2ccc(-c3nc4cc(C(F)(F)F)ccc4[nH]3)s2)c1	448
COc1cc(NC(=O)N2CCOC(CCN3CCC(c4ccccc4)CC3)(c3ccc(Cl)c(Cl)c3)C2)cc(OC)c1 (stereo unspecified)	287
CCc1cn2c3c(cc(C(=O)N[C@@H](Cc4cccc(Cl)c4)[C@H](O)CNC4CCOCC4)cc13)N(C)S(=O)(=O)CC2	44.2
COc1ccc(-c2ccc(NC(=O)c3ccc(Cl)cc3)cc2)cc1CN1CCNCC1	129
CC(C)(C)c1ccc(O)c(CNC2CCCCC2)c1	264
O=C(OCc1ccccn1)c1nc2ccccc2[nH]1	793
CCc1c(CCNCCCCCCNCCc2ccc(OC)c(OC)c2CC)ccc(OC)c1OC	735
COc1cc(NC(=O)Nc2cc(C)nc3ccccc23)cc(OC)c1	396
O=C(/C=C/c1cccs1)NC1CCC(CN2CCC(c3c[nH]c4ccccc34)CC2)CC1 (stereo unspecified)	1050
O=C(Nc1cccc(CN2CCCN(Cc3ccc(O)cc3)CC2)c1)c1cc2ccccc2o1	1200
N#Cc1cccc(Nc2ncc3c(-c4cccc(NC(=O)Cc5cccc(Cl)c5)c4)c[nH]c3n2)c1	423
COc1ccccc1/C=C/C(=O)NC1CCC(CCN2CCc3ccc(-c4cc(C)no4)cc3CC2)CC1 (stereo unspecified)	961
O=C(N[C@@H](Cc1ccccc1)C(=O)NC1CCCCC1)c1ccc(O)c(-c2ccc(Cl)c(Cl)c2)c1	231
CC1(C)NC(N)=NC(=N)N1OCCOc1ccc2ccccc2c1	3.2
CC[C@H]1CN2CC[C@@H]1C[C@H]2[C@H](O)c1cc(-c2c(C)noc2C)nc2ccc(OC)cc12	33

SMILES	XC50 [nM]
Cc1nc2nc(N)nc(N)c2c(C)c1Cc1c(Cl)cccc1Cl	48.9
Clc1ccc(OCc2ccccc2)c(-c2nc(-c3nc4ccc(Cl)cc4[nH]3)cs2)c1	670
CN1CCCc2ccc(NC(=O)Nc3ccc(Cl)c(Cl)c3)cc2C1	603
CC(Oc1ccc(Cl)cc1Cl)c1nc(-c2ccc(NC(=O)c3ccco3)cc2)no1 (stereo unspecified)	905
N#Cc1ccc(N2CCN(Cc3cccc(-c4ccc(-c5nc6cc(C(F)(F)F)ccc6[nH]5)cc4)c3)CC2)nc1	702
Cc1cc(N[C@@H](Cc2ccccc2)C(=O)NCc2cccc(F)c2)nc(NCCc2ccc(F)cc2)n1	649
Nc1nc(O)c2cc(CN(C=O)c3ccc(C(=O)N[C@@H](CCC(=O)O)C(=O)O)cc3)ccc2n1	179
COc1nc(Nc2cccc(C)c2)nc(OC)n1	1010
CC(=O)Nc1ccc(OCCN(CC(C)C)c2ccc(C(F)(F)F)c(C#N)c2)c(Cl)c1	308
Cc1ccccc1OCCCON1C(=N)N=C(N)NC1(C)C	3.2
CCC1(c2ccccc2)N=C(N)N(CCCc2ccccc2)C1=O (stereo unspecified)	891
O=C(Nc1cc(F)c(F)c(-c2cccnc2)c1)N1CCc2cc(Cl)c(Cl)cc21	844
CC(C)COc1ccc(Cl)cc1Cc1nc(-c2nc3cccc(CN4CCN(C)CC4)c3[nH]2)cs1	1330
COc1cc(NCCCNC(=O)c2cc3c(Cl)cc(Cl)cc3[nH]2)nc2ccccc12	144
CCc1ccc(C2CCN(CCCCNC(=O)c3ccc(NC(=O)c4ccc(Cl)cc4)cc3)CC2)cc1	646
CCc1nc2ccc(C(=O)OC)nc2n1Cc1ccc2oc(-c3ccccc3N)c(Br)c2c1	822
Clc1ccc(CNc2nc(NCCc3c[nH]cn3)nc(Nc3ccc4c(c3)OCO4)n2)cc1	955
Cc1ccc(NC(=O)NC2CCN(CCCCCNC(=O)/C=C/c3ccc(Cl)c(Cl)c3)CC2)cc1C	733
O=C(NCCCN1CCCC1=O)NCc1ccccc1	816
COc1cc(NCCCNCC2c3ccccc3Oc3ccccc32)nc2ccccc12	331
COc1cccc(CC(=O)NC2CCN(c3ccnc4cc(Cl)ccc34)C2)c1 (stereo unspecified)	704
CCc1cc2c(O)c([N+](=O)[O-])c(=O)oc2cc1OCCCCCOc1cc2oc(=O)c([N+](=O)[O-])c(O)c2cc1CC	257
COc1ccc(-c2ccc(NC(=O)c3ccc(F)cc3)cc2)cc1CN1CCCN(C)CC1	663
CC1(C)NC(N)=NC(=N)N1OCCSc1ccc(Cl)c(Cl)c1	3.2

SMILES	XC50 [nM]
O=c1cc(NCCCNCc2ccc(Cl)c(Cl)c2)[nH]c2cc(Cl)ccc12	925
COc1ccc(C2CC(=O)C3=C(C2)NC(C)=C(C(=O)OC(C)C)C3c2ccccc2F)cc1OC (stereo unspecified)	61.6
Cc1cc(NCCc2ccccc2)nc(NC(=N)Nc2cccc(F)c2)n1	899
Fc1cc(Cl)ccc1Nc1ccnc2cc(-c3ccc(CN4CCNCC4)o3)ccc12	277
CCN1CCN(c2cc(C)c3cc(NC(=O)c4ccc([N+](=O)[O-])c(C)c4)ccc3n2)CC1	654
COc1ccc(CN2CCC(N3CCc4cc(NC(=O)c5cc(C)on5)ccc43)C2)cc1Cl (stereo unspecified)	939
COc1ccc(Nc2nccc(NCC(O)c3ccc(C(F)(F)F)cc3)n2)cc1 (stereo unspecified)	545
COCCNCc1nc(-c2ccc3c(Nc4ccc(F)c(O)c4)ccnc3c2)cs1	695
COC(=O)Cc1ccc(N)c2ccccc12	702
COc1ccc2c(NN=Cc3ccccc3)ccnc2c1	130
Cc1ccc(-c2nnc(Nc3ccc(OCC(N)=O)cc3)c3ccccc23)cc1S(=O)(=O)NCC1CCCO1 (stereo unspecified)	753
O=C(NCc1cccc(F)c1)c1ccc(O)c(-c2cc(Cl)cc(Cl)c2)c1	559
COc1ccc2c(OC)cccc2c1CNCCCCCCNCc1c(OC)ccc2c(OC)cccc12	686
Cc1cc(N[C@@H](Cc2ccccc2)C(=O)NCc2cccs2)nc(NCC2CCCCC2)n1	988
CC(C)NCc1ccc(-c2ccc(NC(=O)c3ccc(Cl)cc3)cc2)cc1	910
COC(=O)C(c1ccc(NC(=O)[C@H](CC(C)C)NC(=O)OC(C)(C)C)cc1)c1ccc(NC(=O)[C@H](CC(C)C)NC(=O)OC(C)(C)C)cc1	348
CC(C)(Cc1ccc(Cl)cc1)NCCCCCCNCCc1ccc(O)c(O)c1	1200
Fc1cccc2sc(Nc3nc(-c4ccccn4)cs3)nc12	906
COc1cccc(Nc2nnc(SCC(=O)NNC(=O)c3ccccn3)s2)c1	380
CCNc1cc(C(=O)N[C@@H](Cc2ccccc2)[C@H](O)CNC(C)(C)Cc2cccc(OC)c2)cc(N2CCCC2=O)c1	707
CCc1ccc(NC(=O)c2ccc(CN3CCCN(Cc4cccs4)CC3)cc2)cc1	827
COc1ccc(NC(=O)c2cc(-c3ccc(NC(C)=O)cc3)cnc2N)cc1	806
COc1cccc(CN2CCC3(CC2)CN(C(=O)Nc2ccc(Cl)c(Cl)c2)C3)c1	752
CCOC(=O)c1ccc(NC(=O)Nc2cccc(-c3ccc(-c4nc5cc(F)ccc5[nH]4)cc3)c2)cc1	94.5

SMILES	XC50 [nM]
Cc1cc(Nc2ncc(Cl)c(Nc3ccccc3C(N)=O)n2)n[nH]1	811
CCCCCN1CCCN(Cc2cccc(NC(=O)c3ccc(Cl)c(Cl)c3)c2)CC1	927
C=CCOC(=O)O[C@@H]1[C@@H](OC(=O)OCC=C)[C@@H](OC)O[C@H](COC(c2ccccc2)(c2ccccc2)c2ccccc2)[C@H]1OC(=O)OCC=C	887
CCOC(=O)N1NC(=O)N(c2ccccc2)C1(c1ccccc1)c1ccccc1	697
CCN(Cc1ccccc1)C1CCN(Cc2cc(Br)ccc2O)CC1	823
CCOc1ccc(C2CCN(CCN3CCC(NC(=O)c4ccc(-c5ccc(C(F)(F)F)cc5)cc4)CC3)CC2)c(OCC2CC2)c1	826
Brc1ccccc1CNc1ccnc(NCCn2ccnc2)n1	900
Nc1nc(N)c2cc(C#Cc3ccc(-c4ccccc4)cc3)ccc2n1	810
NC(=O)c1cccc(Nc2nccc(Nc3ccc4[nH]c(-c5ccccc5)cc4c3)n2)c1	776
COCCSc1ccc(CC(C)NCC(O)c2cccc(Cl)c2)cc1 (stereo unspecified)	758
CC(=O)c1ccc2c(c1)CCN(CCC1CCC(NC(=O)c3cc4ccccc4[nH]3)CC1)CC2 (stereo unspecified)	982
c1ccc(-c2cc(NCCCn3ccnc3)nc(-c3cccnc3)n2)cc1	977
CN(C(=O)c1cc2c(-c3cncnc3)cccc2[nH]1)c1ccccc1	628
C=CCOc1ccc(Cc2cnc(N)nc2N)cc1CCC	1020
CN(C(=O)OCc1ccccc1)C1CCC(CCN2CCC3(CC2)C(=O)NCN3c2cccc(C(F)(F)F)c2)(c2ccccc2)CC1 (stereo unspecified)	1180
Cc1cccc2nc(-c3cccc(-c4ccc(NC(=O)c5cccc(C(N)=O)c5)cc4)c3)[nH]c12	410
CN1CCC(NCc2cccc(-c3cccc(S(=O)(=O)NCc4ccccc4)c3)c2)CC1	749
C=C(C)CSc1nc2c(c(=O)n1CCc1ccccc1)C1(CCCC1)Cc1ccccc1-2	607
CC(C)CCN1CCC(Oc2ccc(NC(=O)c3cccs3)cc2Cl)C1 (stereo unspecified)	1100
Cc1c(Cl)ccc2sc(N3CCN(C(=O)c4ccc([N+](=O)[O-])o4)CC3)nc12	745
Cc1ccc(Cl)cc1NC(=O)c1c(-c2ccccc2Cl)noc1C	192
O=C(c1ccc(-c2ccc(-c3nc4cc(C(F)(F)F)ccc4[nH]3)s2)cc1)N1CCCCC1CN1CCC(O)C1 (stereo unspecified)	560
CCc1ccccc1N1CCN(CCCC(=O)c2ccc(NC(=O)c3cc(Cl)cc(Cl)c3)cc2)CC1	290
CS(=O)(=O)Nc1ccc2[nH]cc(C3CCN(CC4CCN(C(=O)/C=C/c5ccc(Cl)c(Cl)c5)CC4)CC3)c2c1	716
